Assay results published in ChEMBL document CHEMBL1201862, “PubChem BioAssay data set” (2004).
Activity calls are given as the source filed them.

Key:
Genome polyprotein = Genome polyprotein (dengue virus type 2, UniProt P29990); test: flavivirus cap methylation enzyme inhibition – biochemical, confirmation dose response, primary screen (AID 588689); type: functional
[1] = biological target: DNA dC->dU-editing enzyme APOBEC-3G (Homo sapiens, UniProt Q9HC16); type: functional;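 further: Dose-response counterscreen measuring inhibition of APOBEC3G DNA deaminase activity, run while confirming APOBEC3A inhibitors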
Sequence of DNA dC->dU-editing enzyme APOBEC-3G (Q9HC16 whole entry): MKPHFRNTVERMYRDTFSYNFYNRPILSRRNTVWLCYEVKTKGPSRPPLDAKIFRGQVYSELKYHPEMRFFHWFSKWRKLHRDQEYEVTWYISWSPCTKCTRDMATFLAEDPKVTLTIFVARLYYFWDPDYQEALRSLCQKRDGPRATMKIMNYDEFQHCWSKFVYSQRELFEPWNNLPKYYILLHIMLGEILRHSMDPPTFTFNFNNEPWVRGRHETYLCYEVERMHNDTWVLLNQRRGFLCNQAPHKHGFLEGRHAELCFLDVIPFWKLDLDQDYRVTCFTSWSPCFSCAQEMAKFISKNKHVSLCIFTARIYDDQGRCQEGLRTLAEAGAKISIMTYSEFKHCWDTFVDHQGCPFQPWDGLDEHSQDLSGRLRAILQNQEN

[2] = biological target: DNA dC->dU-editing enzyme APOBEC-3A (Homo sapiens, UniProt P31941); test: Dose Response confirmation of small molecule APOBEC3A DNA Deaminase Inhibitors via a fluorescence-based single-stranded DNA deaminase assay. [Related pubchem assays (depositor defined):AID493011, AID493024]; type: functional
Sequence of DNA dC->dU-editing enzyme APOBEC-3A (P31941 whole entry): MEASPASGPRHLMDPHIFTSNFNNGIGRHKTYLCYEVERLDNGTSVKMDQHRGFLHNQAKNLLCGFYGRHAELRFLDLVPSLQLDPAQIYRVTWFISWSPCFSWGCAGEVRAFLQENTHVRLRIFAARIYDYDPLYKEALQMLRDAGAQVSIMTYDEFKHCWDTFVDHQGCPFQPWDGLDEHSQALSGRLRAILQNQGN

[3] = biological target: Luciferin 4-monooxygenase (Photinus pyralis, UniProt P08659); test: inhibition of purified Photinus pyralis luciferase – biochemical, luminescence, dose response (AID 1891)
[4] = Luminescence Cell-Based Dose Confirmation HTS to Identify Inhibitors of Platelet Dense Granule Release. [Related pubchem assays: 1663 (Primary HTS), 1678 (Summary of Project)]; type: functional
HEK293 = test: EBV LMP1 TES2 canonical NF-kB signalling blockers – cell-based, HEK293, luciferase, cherry-pick, dose response (AID 588343); type: functional; details: Homo sapiens
[5] = biological target: T1, Short transient receptor potential channel 4 (Mus musculus, UniProt Q9QUQ5); test: block of DAMGO-driven TRPC4 calcium entry – cell-based, HEK293 TRPC4/mu-opioid, Fluo-4 calcium, dose response (AID 434942); type: functional;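 further: potency of inhibitors blocking the TRPC4 calcium response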
T1 sequence (Q9QUQ5 whole entry): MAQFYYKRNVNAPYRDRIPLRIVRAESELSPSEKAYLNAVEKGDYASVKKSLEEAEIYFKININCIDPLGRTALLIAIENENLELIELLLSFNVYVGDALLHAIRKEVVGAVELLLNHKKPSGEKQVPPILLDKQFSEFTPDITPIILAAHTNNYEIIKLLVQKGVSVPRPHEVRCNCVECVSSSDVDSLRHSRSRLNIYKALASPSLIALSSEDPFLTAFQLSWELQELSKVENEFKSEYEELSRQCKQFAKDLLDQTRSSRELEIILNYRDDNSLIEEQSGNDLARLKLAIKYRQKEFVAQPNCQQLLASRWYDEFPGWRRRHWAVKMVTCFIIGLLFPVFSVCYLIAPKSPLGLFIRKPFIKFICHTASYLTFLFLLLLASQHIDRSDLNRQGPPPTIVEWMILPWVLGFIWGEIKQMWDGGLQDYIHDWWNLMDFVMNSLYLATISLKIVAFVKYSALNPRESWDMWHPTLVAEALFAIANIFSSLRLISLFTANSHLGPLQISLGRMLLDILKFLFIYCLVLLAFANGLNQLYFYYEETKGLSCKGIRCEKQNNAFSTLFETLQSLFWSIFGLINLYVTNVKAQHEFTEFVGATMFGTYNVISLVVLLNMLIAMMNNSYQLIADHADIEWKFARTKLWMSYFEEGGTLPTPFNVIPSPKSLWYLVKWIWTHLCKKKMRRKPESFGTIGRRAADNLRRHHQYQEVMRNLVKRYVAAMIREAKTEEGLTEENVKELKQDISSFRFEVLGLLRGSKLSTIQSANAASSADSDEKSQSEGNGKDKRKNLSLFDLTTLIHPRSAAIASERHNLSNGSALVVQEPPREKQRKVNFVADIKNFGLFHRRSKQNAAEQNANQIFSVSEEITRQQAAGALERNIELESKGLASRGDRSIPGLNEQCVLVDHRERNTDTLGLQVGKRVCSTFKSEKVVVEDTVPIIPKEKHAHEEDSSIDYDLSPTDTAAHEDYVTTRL

[6] = biological target: T2, DNA repair and recombination protein RAD54-like (Homo sapiens, UniProt Q92698); test: RAD54 Holliday junction migration blockers – biochemical, fluorescence, cherry-picked samples, dose series, confirmation (AID 651657); type: functional
T2 sequence (Q92698 whole entry): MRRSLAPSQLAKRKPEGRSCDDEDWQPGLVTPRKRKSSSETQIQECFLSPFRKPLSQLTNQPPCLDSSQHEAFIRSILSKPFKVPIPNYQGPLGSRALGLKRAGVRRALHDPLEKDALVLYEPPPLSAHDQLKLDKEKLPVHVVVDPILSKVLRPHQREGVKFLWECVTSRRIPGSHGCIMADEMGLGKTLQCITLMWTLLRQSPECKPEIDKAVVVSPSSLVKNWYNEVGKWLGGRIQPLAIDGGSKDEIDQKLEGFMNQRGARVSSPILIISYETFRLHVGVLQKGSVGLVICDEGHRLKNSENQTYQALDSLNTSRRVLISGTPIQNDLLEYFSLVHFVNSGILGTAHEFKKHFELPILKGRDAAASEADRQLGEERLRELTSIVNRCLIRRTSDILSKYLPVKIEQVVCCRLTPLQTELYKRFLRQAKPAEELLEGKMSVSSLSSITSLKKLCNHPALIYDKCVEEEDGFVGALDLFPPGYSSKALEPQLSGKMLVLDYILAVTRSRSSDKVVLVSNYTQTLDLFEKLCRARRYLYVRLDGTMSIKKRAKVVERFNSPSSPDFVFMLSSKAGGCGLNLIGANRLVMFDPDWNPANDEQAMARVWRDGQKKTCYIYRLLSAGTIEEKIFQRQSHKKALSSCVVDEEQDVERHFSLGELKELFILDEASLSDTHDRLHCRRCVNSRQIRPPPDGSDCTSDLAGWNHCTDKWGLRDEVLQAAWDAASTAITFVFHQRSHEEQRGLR

[7] = biological target: Peroxisome proliferator-activated receptor gamma/Nuclear receptor coactivator 3 (Homo sapiens, UniProt P37231); type: functional;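 further: agonist potency for raising coactivator recruitment to the receptor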
Sequence of Peroxisome proliferator-activated receptor gamma/Nuclear receptor coactivator 3 (P37231 whole entry): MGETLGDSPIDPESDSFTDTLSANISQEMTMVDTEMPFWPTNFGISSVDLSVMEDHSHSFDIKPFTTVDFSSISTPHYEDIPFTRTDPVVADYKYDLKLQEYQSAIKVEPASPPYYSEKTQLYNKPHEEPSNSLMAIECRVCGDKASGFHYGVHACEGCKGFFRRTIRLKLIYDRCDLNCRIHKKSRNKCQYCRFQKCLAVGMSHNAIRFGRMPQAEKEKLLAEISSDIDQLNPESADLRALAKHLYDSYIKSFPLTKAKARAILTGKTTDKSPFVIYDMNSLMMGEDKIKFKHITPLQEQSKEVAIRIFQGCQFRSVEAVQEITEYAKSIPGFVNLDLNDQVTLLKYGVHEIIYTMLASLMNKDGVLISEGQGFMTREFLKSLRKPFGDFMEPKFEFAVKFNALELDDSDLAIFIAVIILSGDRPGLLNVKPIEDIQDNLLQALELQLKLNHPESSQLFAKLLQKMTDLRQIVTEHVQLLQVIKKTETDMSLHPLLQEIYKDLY
Sequence of Peroxisome proliferator-activated receptor gamma/Nuclear receptor coactivator 3 (Q9Y6Q9 whole entry, further chain): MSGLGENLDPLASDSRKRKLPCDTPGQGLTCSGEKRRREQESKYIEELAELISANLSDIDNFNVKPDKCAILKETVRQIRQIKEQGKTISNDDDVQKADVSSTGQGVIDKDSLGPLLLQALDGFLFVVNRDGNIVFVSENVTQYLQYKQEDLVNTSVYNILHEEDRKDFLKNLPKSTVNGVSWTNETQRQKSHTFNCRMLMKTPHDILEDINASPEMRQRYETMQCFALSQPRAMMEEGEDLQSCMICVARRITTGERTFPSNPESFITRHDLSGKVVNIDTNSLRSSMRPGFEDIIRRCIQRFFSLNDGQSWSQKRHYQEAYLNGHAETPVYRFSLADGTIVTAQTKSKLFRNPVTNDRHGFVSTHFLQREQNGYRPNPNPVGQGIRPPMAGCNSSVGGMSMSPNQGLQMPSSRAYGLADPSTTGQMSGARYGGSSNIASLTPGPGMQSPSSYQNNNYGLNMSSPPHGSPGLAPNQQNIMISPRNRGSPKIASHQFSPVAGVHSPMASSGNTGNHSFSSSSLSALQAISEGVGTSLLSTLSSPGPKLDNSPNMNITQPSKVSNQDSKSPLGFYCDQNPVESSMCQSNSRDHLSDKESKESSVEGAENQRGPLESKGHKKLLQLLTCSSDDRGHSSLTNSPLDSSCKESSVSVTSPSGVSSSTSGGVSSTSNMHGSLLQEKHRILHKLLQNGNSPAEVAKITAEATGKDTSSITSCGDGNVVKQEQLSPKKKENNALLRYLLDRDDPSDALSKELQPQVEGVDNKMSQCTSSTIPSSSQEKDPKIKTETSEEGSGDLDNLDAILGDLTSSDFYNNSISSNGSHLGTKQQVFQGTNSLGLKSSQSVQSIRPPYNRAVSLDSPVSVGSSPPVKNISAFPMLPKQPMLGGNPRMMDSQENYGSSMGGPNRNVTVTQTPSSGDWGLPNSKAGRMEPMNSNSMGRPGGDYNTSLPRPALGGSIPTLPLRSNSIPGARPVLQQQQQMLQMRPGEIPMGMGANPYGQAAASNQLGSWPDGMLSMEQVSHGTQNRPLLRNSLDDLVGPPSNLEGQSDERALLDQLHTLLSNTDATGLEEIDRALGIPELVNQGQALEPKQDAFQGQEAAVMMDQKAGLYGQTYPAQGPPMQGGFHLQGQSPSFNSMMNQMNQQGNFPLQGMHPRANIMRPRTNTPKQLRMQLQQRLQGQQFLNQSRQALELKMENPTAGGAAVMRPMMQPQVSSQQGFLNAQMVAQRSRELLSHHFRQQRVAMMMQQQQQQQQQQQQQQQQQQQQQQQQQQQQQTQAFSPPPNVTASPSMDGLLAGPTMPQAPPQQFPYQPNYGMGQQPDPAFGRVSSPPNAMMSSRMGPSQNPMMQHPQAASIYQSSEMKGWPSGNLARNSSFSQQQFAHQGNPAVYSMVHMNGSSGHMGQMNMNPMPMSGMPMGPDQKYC

[8] = biological target: Peroxisome proliferator-activated receptor gamma/Nuclear receptor coactivator 2 (Homo sapiens, UniProt P37231); type: functional;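 further: agonist potency for raising coactivator recruitment to the receptor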
[9] = biological target: Peroxisome proliferator-activated receptor gamma/Nuclear receptor coactivator 1 (Homo sapiens, UniProt P37231); type: functional;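 further: agonist potency as compounds enhance coactivator SRC-1 recruitment to PPARgamma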
SUMO-activating enzyme = SUMO-activating enzyme (Homo sapiens, UniProt Q9UBT2); test: blockers of UBC9-mediated SUMO conjugation – biochemical, AlphaScreen, SUMOylation inhibitor project, confirmation (AID 2018); type: functional
Sequence of SUMO-activating enzyme (Q9UBE0 whole entry): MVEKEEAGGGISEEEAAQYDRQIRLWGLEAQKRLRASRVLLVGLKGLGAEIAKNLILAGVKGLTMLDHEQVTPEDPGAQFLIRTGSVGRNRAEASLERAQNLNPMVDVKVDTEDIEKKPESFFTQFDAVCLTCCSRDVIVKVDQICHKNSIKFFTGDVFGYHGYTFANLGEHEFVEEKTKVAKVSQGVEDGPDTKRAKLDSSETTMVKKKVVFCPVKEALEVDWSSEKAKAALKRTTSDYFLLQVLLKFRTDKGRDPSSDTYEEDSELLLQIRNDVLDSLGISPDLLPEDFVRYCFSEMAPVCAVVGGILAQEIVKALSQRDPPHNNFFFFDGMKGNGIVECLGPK
Sequence of SUMO-activating enzyme (Q9UBT2 whole entry): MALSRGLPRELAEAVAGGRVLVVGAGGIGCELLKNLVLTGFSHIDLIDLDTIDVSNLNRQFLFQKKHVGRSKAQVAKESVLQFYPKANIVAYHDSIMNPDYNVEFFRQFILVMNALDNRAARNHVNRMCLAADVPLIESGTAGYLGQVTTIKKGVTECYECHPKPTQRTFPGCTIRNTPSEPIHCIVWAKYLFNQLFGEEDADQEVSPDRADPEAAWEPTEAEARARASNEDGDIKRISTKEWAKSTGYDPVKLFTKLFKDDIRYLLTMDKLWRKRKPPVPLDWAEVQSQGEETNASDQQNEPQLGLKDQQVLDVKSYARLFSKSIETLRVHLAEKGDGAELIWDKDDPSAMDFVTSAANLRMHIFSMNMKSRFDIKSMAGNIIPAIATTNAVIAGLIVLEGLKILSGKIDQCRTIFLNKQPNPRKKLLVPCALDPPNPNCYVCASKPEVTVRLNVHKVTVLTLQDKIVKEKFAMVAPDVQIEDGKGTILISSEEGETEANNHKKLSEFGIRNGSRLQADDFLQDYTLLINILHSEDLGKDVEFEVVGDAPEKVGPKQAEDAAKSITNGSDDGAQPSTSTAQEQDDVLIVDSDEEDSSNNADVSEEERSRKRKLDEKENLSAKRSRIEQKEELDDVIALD

[10] = biological target: T3, Rac GTPase-activating protein 1 (Homo sapiens, UniProt Q9H0H5); test: blockers of MgcRacGAP-driven Rac1 GTP hydrolysis – biochemical, ADP Hunter fluorescence, primary and confirmatory, confirmation (AID 624330); type: functional
T3 sequence (Q9H0H5 whole entry): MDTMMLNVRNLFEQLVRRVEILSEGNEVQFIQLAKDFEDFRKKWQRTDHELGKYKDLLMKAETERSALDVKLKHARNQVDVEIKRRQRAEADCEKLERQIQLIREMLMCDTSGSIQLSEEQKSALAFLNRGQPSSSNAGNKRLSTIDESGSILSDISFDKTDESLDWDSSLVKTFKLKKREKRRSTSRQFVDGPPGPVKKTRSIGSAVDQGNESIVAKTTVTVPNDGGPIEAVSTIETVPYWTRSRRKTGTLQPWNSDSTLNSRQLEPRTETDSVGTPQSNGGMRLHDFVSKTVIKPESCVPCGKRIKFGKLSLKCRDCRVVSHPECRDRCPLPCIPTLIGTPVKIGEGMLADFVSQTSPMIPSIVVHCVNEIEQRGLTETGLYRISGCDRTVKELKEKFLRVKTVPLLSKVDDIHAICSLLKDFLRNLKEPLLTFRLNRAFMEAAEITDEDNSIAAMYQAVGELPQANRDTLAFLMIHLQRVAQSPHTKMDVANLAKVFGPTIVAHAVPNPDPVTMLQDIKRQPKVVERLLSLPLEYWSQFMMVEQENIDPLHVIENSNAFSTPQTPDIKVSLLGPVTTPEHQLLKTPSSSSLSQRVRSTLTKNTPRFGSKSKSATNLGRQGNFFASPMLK

Cytochrome P450 2C9 = Cytochrome P450 2C9 (Homo sapiens, UniProt P11712)
Sequence of Cytochrome P450 2C9 (P11712 whole entry): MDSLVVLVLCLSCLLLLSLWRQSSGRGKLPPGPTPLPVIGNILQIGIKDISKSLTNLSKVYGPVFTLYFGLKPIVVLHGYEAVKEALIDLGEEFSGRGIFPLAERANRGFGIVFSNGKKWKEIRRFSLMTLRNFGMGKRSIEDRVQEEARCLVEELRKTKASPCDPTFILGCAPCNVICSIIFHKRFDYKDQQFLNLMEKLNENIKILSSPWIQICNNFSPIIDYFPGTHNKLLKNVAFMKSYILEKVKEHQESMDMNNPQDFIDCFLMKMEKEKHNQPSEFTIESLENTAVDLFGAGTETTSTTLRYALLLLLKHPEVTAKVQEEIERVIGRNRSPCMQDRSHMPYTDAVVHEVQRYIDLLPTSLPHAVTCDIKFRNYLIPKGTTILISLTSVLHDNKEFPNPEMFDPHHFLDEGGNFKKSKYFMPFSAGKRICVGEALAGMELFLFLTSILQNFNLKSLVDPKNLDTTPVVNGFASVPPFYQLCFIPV

[11] = biological target: Heat shock protein HSP 90-alpha (Homo sapiens, UniProt P07900); type: functional, organism-based
[12] = intracellular Trypanosoma cruzi inhibitors in host cells – cell-based, plate reader, cherry-pick samples, set 3, dose response (AID 651818); type: functional;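 further: compounds incubated with infected cells for about four days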
[13] = biological target: T4, Long-chain-fatty-acid--AMP ligase FadD28 (Mycobacterium tuberculosis, UniProt P9WQ59); test: Fluorescence polarization aasay to screen for inhibitors that compete for the binding of FadD28 to a bisubstrate Measured in Biochemical System Using Plate Reader - 2147-01_Inhibitor_Dose_CherryPick_Activity.; type: functional, Mycobacterium tuberculosis H37Rv
T4 sequence (P9WQ59 whole entry): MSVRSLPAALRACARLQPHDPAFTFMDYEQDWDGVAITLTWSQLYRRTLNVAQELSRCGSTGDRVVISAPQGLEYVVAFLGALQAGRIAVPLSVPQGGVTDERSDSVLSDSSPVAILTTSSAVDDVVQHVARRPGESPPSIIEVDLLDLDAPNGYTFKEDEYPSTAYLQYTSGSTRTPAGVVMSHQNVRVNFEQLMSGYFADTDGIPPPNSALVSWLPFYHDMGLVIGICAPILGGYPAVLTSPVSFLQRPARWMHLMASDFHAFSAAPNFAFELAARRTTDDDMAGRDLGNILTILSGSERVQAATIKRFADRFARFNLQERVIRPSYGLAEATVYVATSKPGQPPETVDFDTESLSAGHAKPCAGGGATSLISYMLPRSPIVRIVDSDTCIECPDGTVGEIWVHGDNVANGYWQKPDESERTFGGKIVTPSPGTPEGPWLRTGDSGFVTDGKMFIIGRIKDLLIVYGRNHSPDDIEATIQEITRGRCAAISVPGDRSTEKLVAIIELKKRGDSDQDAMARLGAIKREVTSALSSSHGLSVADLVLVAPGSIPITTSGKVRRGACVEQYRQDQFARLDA

Sequence of Genome polyprotein (P29990 2492-3391 limits assumed): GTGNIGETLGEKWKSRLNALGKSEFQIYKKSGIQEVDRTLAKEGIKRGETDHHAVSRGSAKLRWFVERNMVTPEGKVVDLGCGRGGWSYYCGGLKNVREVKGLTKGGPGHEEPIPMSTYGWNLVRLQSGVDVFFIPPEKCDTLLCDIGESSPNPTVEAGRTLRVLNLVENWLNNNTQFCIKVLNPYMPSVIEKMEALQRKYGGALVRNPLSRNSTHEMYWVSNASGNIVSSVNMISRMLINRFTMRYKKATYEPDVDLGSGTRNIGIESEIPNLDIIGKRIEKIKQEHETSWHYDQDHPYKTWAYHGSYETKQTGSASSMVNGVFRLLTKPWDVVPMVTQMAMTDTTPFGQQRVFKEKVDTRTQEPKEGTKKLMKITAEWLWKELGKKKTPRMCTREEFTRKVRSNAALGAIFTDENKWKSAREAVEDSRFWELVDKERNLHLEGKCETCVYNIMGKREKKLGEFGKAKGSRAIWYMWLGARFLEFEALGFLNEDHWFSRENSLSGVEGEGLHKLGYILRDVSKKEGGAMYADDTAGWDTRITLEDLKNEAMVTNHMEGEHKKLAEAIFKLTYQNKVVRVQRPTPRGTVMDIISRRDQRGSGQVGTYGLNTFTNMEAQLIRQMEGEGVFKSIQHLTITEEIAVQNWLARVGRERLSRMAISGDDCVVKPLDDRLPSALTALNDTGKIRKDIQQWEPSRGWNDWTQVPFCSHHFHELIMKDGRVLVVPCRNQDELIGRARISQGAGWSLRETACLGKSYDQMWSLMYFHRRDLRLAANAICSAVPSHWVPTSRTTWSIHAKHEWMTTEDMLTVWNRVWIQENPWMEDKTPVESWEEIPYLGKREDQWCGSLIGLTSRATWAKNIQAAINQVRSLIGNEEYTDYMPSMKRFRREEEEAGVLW

## CCn1c2ccccc2c2cc(NC(=O)c3ccccc3-c3ccccc3C(=O)O)ccc21
Genome polyprotein
  IC50: 42.9 µM (active)

## NC(=O)C[N+]1(CC#CC(O)(c2ccccc2)c2ccccc2)CCCC1
[1]
  IC50: 2.59 µM (active)
[2]
  IC50: 2.74 µM (active)

## COCc1cc(C)nc(Sc2nc3c(c(=O)n(C)c(=O)n3C)n2C)c1C#N
[1]
  IC50: 8.47 µM (active)
[2]
  IC50: 7.99 µM (active)

## COc1ccc(NC(=O)c2ccccn2)cc1
[3]
  EC50: 9.53 µM (active)
[4]
  EC50: 10.5 µM (active)
HEK293
  AC50: 3.65 µM (active)

## O=C(O)C1=CC[C@@H](c2ccc(Cl)cc2)N(S(=O)(=O)c2ccc(Cl)cc2)[C@H]1c1cccc(Cl)c1
Genome polyprotein
  IC50: 37.4 µM (active)

## CSc1nsc(NC(=O)Cc2ccccc2)n1
[5]
  EC50: 5.31 µM (active)

## COC(=O)C1=C(C)N(CC2CC2)C(NCc2cc(OC)c(OC)c(OC)c2)=N[C@H]1c1ccccc1
[1]
  IC50: 14 µM (active)
[2]
  IC50: 8.83 µM (active)

## COC(=O)c1c(NC(=O)CSc2nc[nH]n2)sc(C)c1C
[5]
  EC50: 4.73 µM (active)

## Cc1ccc2oc(=O)c3cc(C(=O)NCCCN4CCN(C)CC4)sc3c2c1
[6]
  AC50: 34 µM (active)

## COC(=O)c1ccc2ccn(CC(=O)NC(C)C)c2c1
[1]
  IC50: 4.95 µM (active)
[2]
  IC50: 3.92 µM (active)

## Cc1ccc(C2CN(C)CC2C(=O)c2ccc(F)cc2)cc1 (centres undefined)
[5]
  EC50: 13.3 µM (active)

## Cc1ccc(CNC(=O)COc2ccc(C(=O)c3ccc(F)cc3)cc2)cc1
[7]
  EC50: > 79.4 µM (not active)
[8]
  EC50: > 79.4 µM (not active)
[9]
  EC50: > 79.4 µM (not active)

## CSc1ccc(C(c2c(C(=O)O)[nH]c3ccccc23)c2c(C(=O)O)[nH]c3ccccc23)cc1
Genome polyprotein
  IC50: 48.8 µM (active)

## O=C(COC(=O)c1cc(NS(=O)(=O)c2cccs2)ccc1O)Nc1cc(Cl)ccc1Cl
SUMO-activating enzyme
  IC50: 28.8 µM (active)

## O=C(O)CCn1cc(C=C2C(=O)NC(=O)NC2=O)c(-c2ccc(Br)cc2)n1
[10]
  IC50: 95.3 µM (active)
Genome polyprotein
  IC50: 7.97 µM (active)

## Cc1nn(-c2ccc(Cl)cc2)c2sc(C(=O)c3c(N)n(C)c(=O)n(C)c3=O)cc12
[7]
  EC50: 33.3 µM (not active)
Cytochrome P450 2C9
  AC50: 25.1 µM (inconclusive)
[8]
  EC50: 18 µM (not active)
[9]
  EC50: 18.4 µM (not active)

## CCCCCCC(=O)N(O)C1CC(=O)N(c2ccc(F)cc2)C1=O (centres undefined)
[11]
  AC50: 2.58 µM (active)

## Cc1ccc([C@H]2C(C(=O)O)=CC[C@@H](c3ccc(Cl)c(Cl)c3)N2S(=O)(=O)c2ccc(C)cc2)cc1
Genome polyprotein
  IC50: 38.8 µM (active)

## CCN1C(=NCC2CC2)N[C@@H](c2ccccc2)C(C(=O)OC)=C1C
[1]
  IC50: 8.56 µM (active)
[2]
  IC50: 3.37 µM (active)

## C[C@@H]1CN([C@H](C)CO)C(=O)Cc2cc(NC(=O)Nc3ccc(F)cc3)ccc2O[C@H]1CN(C)Cc1ccc(-c2ccccc2)cc1
[12]
  AC50: 3.36 µM (active)

## C[C@H]1CN([C@@H](C)CO)C(=O)Cc2cc(NC(=O)Cc3ccccc3)ccc2O[C@H]1CN(C)Cc1ccc(C(F)(F)F)cc1
[12]
  AC50: 2.61 µM (active)

## C[C@@H]1CN([C@H](C)CO)C(=O)Cc2cc(NC(=O)Nc3ccc4c(c3)OCO4)ccc2O[C@@H]1CN(C)Cc1ccc(C(F)(F)F)cc1
[12]
  AC50: 3.86 µM (active)

## Cc1ccc(S(=O)(=O)N(C)C[C@H]2Oc3ccc(NS(=O)(=O)c4ccccc4)cc3CC(=O)N([C@H](C)CO)C[C@H]2C)cc1
[12]
  AC50: 2.56 µM (active)

## C[C@H]1CN([C@@H](C)CO)C(=O)Cc2cc(NC(=O)Nc3ccc(C(F)(F)F)cc3)ccc2O[C@H]1CN(C)Cc1ccncc1
[12]
  AC50: 5.53 µM (active)

## O=C(O)c1ccc(N/N=C/c2ccc(-c3ccccc3)cc2)cc1
[11]
  AC50: 3.09 µM (active)
[13]
  AC50: 10.9 µM (active)
